Measurements taken from patent publication US4994376A, “Detection of bacteroides gingivalis” (priority 1987, dated 1991).
Read-outs that look alike come from different tables or passages of the source.

How the values were obtained:
Format in all cases: biochemical
B. levii = settings: β-naphthylamine liberated after 60 minutes, 37° C.
Procedure: (§1) The enzyme activity was measured by the chromogenic properties of N-CBz-glycyl-glycyl-L-arginine-β-naphthylamide which upon hydrolysis gives a visible color. The aminopeptidase activities listed in the table reflect the nanomoles of β-naphthylamine liberated after 60 minutes under the conditions described below.
(§2) After mixing, the solution is incubated for 1 hour at 37° C. and then 0.4 ml of a solution of stabilized diazonium salt, Fast Garnet GBC (0.5 mg/ml) in a 1M acetic acid buffer (pH 4.2), containing 10% Tween 20 was added to the mixture. After standing for 15 minutes at room temperature, the color reaction can be read manually by comparison with standard solutions or the absorbancy can be determined using a spectrophotometer at 525 nm. The reaction mixture without enzyme solution is used as a control.

B. loescheii = settings: β-naphthylamine liberated after 60 minutes, 37° C.
Procedure: as §1, §2

Bacteroides gingivalis = settings: β-naphthylamine liberated after 60 minutes, 37° C.
Procedure: as §1, §2

B. corporis = assay: Aminopeptidase activity on β-naphthylamide substrates; settings: strain ATCC 33547; β-naphthylamine liberated after 60 minutes, 37° C.
Procedure: as §1, §2

B. denticola = assay: as above; settings: strain ATCC 33185; β-naphthylamine liberated after 60 minutes, 37° C.
Procedure: as §1, §2

B. intermedius = assay: as above; settings: strain ATCC 25611; β-naphthylamine liberated after 60 minutes, 37° C.
Procedure: as §1, §2

B. melaninogenicus = assay: as above; settings: strain ATCC 25845; β-naphthylamine liberated after 60 minutes, 37° C.
Procedure: as §1, §2

C. sputigena = assay: as above; settings: strain ATCC 33123; β-naphthylamine liberated after 60 minutes, 37° C.
Procedure: as §1, §2

"Anaerobic vibrio" = settings: strain SN2T2; β-naphthylamine liberated after 60 minutes, 37° C.
Procedure: as §1, §2
(§3) The enzyme activity and the aminopeptidase activities were determined in the manner described above in regard to Table I.

A. seminis = settings: strain ATCC 15768; β-naphthylamine liberated after 60 minutes, 37° C.
Procedure: as §1, §2, §3

A. viscosus = settings: β-naphthylamine liberated after 60 minutes, 37° C.
Procedure: as §1, §2, §3

[1] = test system: Actinobacillus actinomycetemcomitans; settings: β-naphthylamine liberated after 60 minutes, 37° C.
Procedure: as §1, §2, §3

Actinomyces israeli = settings: β-naphthylamine liberated after 60 minutes, 37° C.
Procedure: as §1, §2, §3

Campylobacter sputorum = settings: strain Ba1-21; β-naphthylamine liberated after 60 minutes, 37° C.
Procedure: as §1, §2, §3

Eikenella corrodens = settings: strain BP1-6; β-naphthylamine liberated after 60 minutes, 37° C.
Procedure: as §1, §2, §3

Fusobacterium nucleatum = settings: β-naphthylamine liberated after 60 minutes, 37° C.
Procedure: as §1, §2, §3

S. mutans = settings: strain ATCC 25175; β-naphthylamine liberated after 60 minutes, 37° C.
Procedure: as §1, §2, §3

S. sanguis = settings: β-naphthylamine liberated after 60 minutes, 37° C.
Procedure: as §1, §2, §3

Streptococcus mitis = settings: β-naphthylamine liberated after 60 minutes, 37° C.
Procedure: as §1, §2, §3

V. parvula = settings: strain ATCC 10790; β-naphthylamine liberated after 60 minutes, 37° C.
Procedure: as §1, §2, §3

Veillonella sp. = settings: strain SE1M2; β-naphthylamine liberated after 60 minutes, 37° C.
Procedure: as §1, §2, §3

A. equuli = assay: Aminopeptidase activity on β-naphthylamide substrates; settings: strain ATCC 19392; β-naphthylamine liberated after 60 minutes, 37° C.
Procedure: as §1, §2, §3

A. suis = assay: as above; settings: strain ATCC 15557; β-naphthylamine liberated after 60 minutes, 37° C.
Procedure: as §1, §2, §3

F. periodonticum = assay: as above; settings: strain EK1-15; β-naphthylamine liberated after 60 minutes, 37° C.
Procedure: as §1, §2, §3

Haemophilus aphrophilus = assay: as above; settings: β-naphthylamine liberated after 60 minutes, 37° C.
Procedure: as §1, §2, §3

L. fermentum = assay: as above; settings: strain ATCC 11581; β-naphthylamine liberated after 60 minutes, 37° C.
Procedure: as §1, §2, §3

Lactobacillus casei = assay: as above; settings: β-naphthylamine liberated after 60 minutes, 37° C.
Procedure: as §1, §2, §3

S. salivarius = assay: as above; settings: β-naphthylamine liberated after 60 minutes, 37° C.
Procedure: as §1, §2, §3

NC(=O)[C@@H](N)CCC(=O)O [α-Glu, α -glutamine]
Aminopeptidase activity (B. levii; strain 18-1-5): 0 nmol | Aminopeptidase activity (B. levii; strain 18-1-8): 2 nmol | Aminopeptidase activity (B. loescheii; strain ATCC 15930): 0 nmol | Aminopeptidase activity (B. loescheii; strain VPI4196): 0 nmol | Aminopeptidase activity (Bacteroides gingivalis; strain 9-14K-1): 0 nmol | Aminopeptidase activity (Bacteroides gingivalis; strain 11-1-2): 0 nmol | Aminopeptidase activity (Bacteroides gingivalis; strain 381): 0 nmol | Aminopeptidase activity (Bacteroides gingivalis; strain 1021): 0 nmol | Aminopeptidase activity (Bacteroides gingivalis; strain ATCC 33277): 1 nmol | Aminopeptidase activity (Bacteroides gingivalis; strain FAYE 19m-1): 0 nmol | Aminopeptidase activity (B. corporis): 0 nmol | Aminopeptidase activity (B. denticola): 0 nmol | Aminopeptidase activity (B. intermedius): 0 nmol | Aminopeptidase activity (B. melaninogenicus): 1 nmol | Aminopeptidase activity (C. sputigena): 7 nmol | Aminopeptidase activity ("Anaerobic vibrio"): 0 nmol | Aminopeptidase activity (A. seminis): 0 nmol | Aminopeptidase activity (A. viscosus; strain ATCC 19246): 0 nmol | Aminopeptidase activity (A. viscosus; strain T14V): 0 nmol | Aminopeptidase activity ([1]; strain 67): 0 nmol | Aminopeptidase activity ([1]; strain 75): 0 nmol | Aminopeptidase activity ([1]; strain ATCC 29523): 0 nmol | Aminopeptidase activity ([1]; strain NCTC 9709): 0 nmol | Aminopeptidase activity ([1]; strain Y4): 0 nmol | Aminopeptidase activity (Actinomyces israeli; strain ATCC 12103): 0 nmol | Aminopeptidase activity (Actinomyces israeli; strain DK2-3): 0 nmol | Aminopeptidase activity (Campylobacter sputorum): 1 nmol | Aminopeptidase activity (Eikenella corrodens): 0 nmol | Aminopeptidase activity (Fusobacterium nucleatum; strain 2): 0 nmol | Aminopeptidase activity (Fusobacterium nucleatum; strain ATCC 25586): 0 nmol | Aminopeptidase activity (Fusobacterium nucleatum; strain D31A-24): 1 nmol | Aminopeptidase activity (S. mutans): 0 nmol | Aminopeptidase activity (S. sanguis; strain ATCC 10556): 0 nmol | Aminopeptidase activity (S. sanguis; strain ATCC 10557): 0 nmol | Aminopeptidase activity (Streptococcus mitis; strain ATCC 9815): 0 nmol | Aminopeptidase activity (Streptococcus mitis; strain ATCC 15909): 0 nmol | Aminopeptidase activity (Streptococcus mitis; strain ATCC 15911): 0 nmol | Aminopeptidase activity (Streptococcus mitis; strain ATCC 15912): 0 nmol | Aminopeptidase activity (V. parvula): 0 nmol | Aminopeptidase activity (Veillonella sp.): 0 nmol | Aminopeptidase activity (A. equuli): 0 nmol | Aminopeptidase activity (A. suis): 0 nmol | Aminopeptidase activity (F. periodonticum): 0 nmol | Aminopeptidase activity (Haemophilus aphrophilus; strain ATCC 13252): 0 nmol | Aminopeptidase activity (Haemophilus aphrophilus; strain ATCC 19415): 0 nmol | Aminopeptidase activity (Haemophilus aphrophilus; strain NCTC 5908): 0 nmol | Aminopeptidase activity (L. fermentum): 0 nmol | Aminopeptidase activity (Lactobacillus casei; strain ATCC 7469): 0 nmol | Aminopeptidase activity (Lactobacillus casei; strain ATCC 11578): 3 nmol | Aminopeptidase activity (Lactobacillus casei; strain ATCC 11582): 3 nmol | Aminopeptidase activity (S. salivarius; strain ATCC 9759): 0 nmol | Aminopeptidase activity (S. salivarius; strain ATCC 25975): 0 nmol
